“And” between values parts separate entries of the source, which are not always exact repeats. Equal entries are not always repeated. Toxic doses and inconclusive results are not listed. No stated cut-off is given here; in the data, active means T/C of 150% or more; inactive means T/C below 125%.
Test system: L1210 leukemia ip in BDF1 mice, survival T/C
Test: NCI In Vivo Anticancer Drug Screen. Data for tumor model L1210 Leukemia (intraperitoneal) in B6D2F1 (BDF1) mice
Details: endpoint: mean survival time, higher = longer survival
In short: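 Tumor cells were implanted, animals were treated, and survival was followed. The result divides the treated measurement by the vehicle-control measurement.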

[1] = dose: 100.0 mg/kg/injection, schedule: Q01DX009 (ip), vehicle: Klucel (hydroxypropylcellulose) (HPC)
[2] = dose: 100.0 mg/kg/injection, schedule: Q04DX003 (ip), vehicle: Klucel (hydroxypropylcellulose) (HPC)
[3] = dose: 200.0 mg/kg/injection, schedule: Q04DX003 (ip), vehicle: Klucel (hydroxypropylcellulose) (HPC)
[4] = dose: 100.0 mg/kg/injection, schedule: Q01DX001 (ip), vehicle: Klucel (hydroxypropylcellulose) (HPC)
[5] = dose: 200.0 mg/kg/injection, schedule: Q01DX001 (ip), vehicle: Klucel (hydroxypropylcellulose) (HPC)
[6] = dose: 400.0 mg/kg/injection, schedule: Q01DX001 (ip), vehicle: Klucel (hydroxypropylcellulose) (HPC)
[7] = dose: 100.0 mg/kg/injection, schedule: Q01DX009 (ip), vehicle: saline with Tween-80
[8] = dose: 200.0 mg/kg/injection, schedule: Q01DX009 (ip), vehicle: saline with Tween-80
[9] = dose: 400.0 mg/kg/injection, schedule: Q01DX009 (ip), vehicle: saline with Tween-80
[10] = dose: 222.0 mg/kg/injection, schedule: Q01DX Z (ip), vehicle: saline
[11] = dose: 333.0 mg/kg/injection, schedule: Q01DX Z (ip), vehicle: saline
[12] = dose: 500.0 mg/kg/injection, schedule: Q01DX Z (ip), vehicle: saline
[13] = dose: 100.0 mg/kg/injection, schedule: Q01DX001 (ip), vehicle: saline with Tween-80
[14] = dose: 100.0 mg/kg/injection, schedule: Q01DX001 (ip), vehicle: saline
[15] = dose: 100.0 mg/kg/injection, schedule: Q01DX009 (ip), vehicle: saline
[16] = dose: 200.0 mg/kg/injection, schedule: Q01DX001 (ip), vehicle: saline
[17] = dose: 200.0 mg/kg/injection, schedule: Q01DX009 (ip), vehicle: saline
[18] = dose: 400.0 mg/kg/injection, schedule: Q01DX009 (ip), vehicle: saline
[19] = dose: 100.0 mg/kg/injection, schedule: Q04DX003 (ip), vehicle: saline sonified
[20] = dose: 100.0 mg/kg/injection, schedule: Q01DX001 (ip), vehicle: carboxymethylcellulose (CMC)
[21] = dose: 200.0 mg/kg/injection, schedule: Q01DX001 (ip), vehicle: carboxymethylcellulose (CMC)
[22] = dose: 400.0 mg/kg/injection, schedule: Q01DX001 (ip), vehicle: carboxymethylcellulose (CMC)
[23] = dose: 50.0 mg/kg/injection, schedule: Q01DX009 (ip), vehicle: saline with Tween-80
[24] = dose: 100.0 mg/kg/injection, schedule: Q04DX003 (ip), vehicle: saline with Tween-80
[25] = dose: 200.0 mg/kg/injection, schedule: Q04DX003 (ip), vehicle: saline with Tween-80
[26] = dose: 400.0 mg/kg/injection, schedule: Q04DX003 (ip), vehicle: saline with Tween-80

Measured: T/C

CC1SC(=S)N(c2ccc(Cl)cc2)C1=O (configuration not stated)
inactive: [1] 115 % of control | [2] 98 % of control | dose: 200.0 mg/kg/injection, schedule: Q01DX009 (ip), vehicle: Klucel (hydroxypropylcellulose) (HPC) 110 % of control | [3] 106 % of control

Nc1c(-c2ncc[nH]2)ncn1C1OC(CO)C(O)C1O (configuration not stated)
inactive: dose: 100.0 mg/kg/injection, schedule: Q01DX005 (ip), vehicle: saline 94 % of control | dose: 200.0 mg/kg/injection, schedule: Q01DX005 (ip), vehicle: saline 93 % of control

CC(=O)OC1C(C)C2C=CC(=O)C2(C)CC2C1OC(=O)C2(O)CO (configuration not stated)
inactive: dose: 25.0 mg/kg/injection, schedule: Q04DX002 (ip), vehicle: saline 116 % of control | dose: 50.0 mg/kg/injection, schedule: Q04DX002 (ip), vehicle: saline 113 % of control | dose: 100.0 mg/kg/injection, schedule: Q04DX002 (ip), vehicle: saline 95 % of control

O=C(c1ccccc1)C(C(NC1CCCCC1)c1ccccc1)N1CCCCC1 (configuration not stated)
inactive: [4] 95 % of control | [5] 92 % of control | [6] 92 % of control

COc1ccc(OC)c(NC(=O)Nc2cc(OC)ccc2OC)c1
inactive: [7] 106 % of control | [8] 97 % of control | [9] 94 % of control

CCCC(=O)OCC1CC2C=CC1C2 (configuration not stated)
inactive: [10] 100 % of control | [11] 102 % of control | [12] 112 % of control

CC1C[N+](C)=C(c2ccc(O)cc2)S1 (configuration not stated)
inactive: dose: 50.0 mg/kg/injection, schedule: Q01DX001 (ip), vehicle: saline with Tween-80 103 % of control | [13] 107 % of control

Cc1nn(C2CC(O)C(O)C(CO)O2)c(=O)[nH]c1=O (configuration not stated)
inactive: dose: 50.0 mg/kg/injection, schedule: Q01DX001 (ip), vehicle: saline 93 % of control | [14] 96 % of control | [15] 92 % of control | [16] 104 % of control | [17] 95 % of control | dose: 400.0 mg/kg/injection, schedule: Q01DX001 (ip), vehicle: saline 98 % of control | [18] 98 % of control

O=C(Nc1ccc(S(=O)(=O)F)cc1)c1ccc(COc2ccc([N+](=O)[O-])cc2Cl)cc1
inactive: [7] 92 % of control | [8] 94 % of control | [9] 94 % of control

CO/[N+]([O-])=C\C(=O)N/C=C/C(=O)O
inactive: dose: 13.3 mg/kg/injection, schedule: Q01DX Z (ip), vehicle: carboxymethylcellulose (CMC) 93 % of control | dose: 20.0 mg/kg/injection, schedule: Q01DX Z (ip), vehicle: carboxymethylcellulose (CMC) 101 % of control

Cc1ccc(N)cc1
inactive: [14] 114 % of control | [16] 102 % of control

CCN(CCN)c1cccc(C)c1
inactive: [19] 92 % of control

O=C(CCCN1CC=C(c2ccccc2)CC1)c1ccc(N2CCC(O)(c3ccc(Cl)cc3)CC2)cc1
inactive: [4] 89 % of control | [5] 95 % of control | [6] 92 % of control

CN(C)S(=O)(=O)c1ccccc1C(O)(c1ccccc1)c1ccccc1
inactive: [20] 95 % of control | [21] 93 % of control | [22] 98 % of control

NOCc1c(F)c(F)c(F)c(F)c1F
inactive: [19] 93 % of control | dose: 200.0 mg/kg/injection, schedule: Q04DX003 (ip), vehicle: saline sonified 104 % of control

Cc1ccc(CC#N)c(-c2c(CC#N)ccc(C)c2C)c1C
inactive: dose: 100.0 mg/kg/injection, schedule: Q04DX002 (ip), vehicle: gum acacia 87 % of control | dose: 200.0 mg/kg/injection, schedule: Q04DX002 (ip), vehicle: gum acacia 93 % of control | dose: 400.0 mg/kg/injection, schedule: Q04DX002 (ip), vehicle: gum acacia 93 % of control

CC(C)C(NC(=O)NCCCl)c1ccccc1 (configuration not stated)
inactive: [2] 88 % of control | [3] 88 % of control

O=C(C=C(C(F)(F)F)C(F)(F)F)c1ccc([N+](=O)[O-])cc1
inactive: dose: 3.13 mg/kg/injection, schedule: Q01DX009 (ip), vehicle: other 105 % of control | dose: 3.13 mg/kg/injection, schedule: Q04DX003 (ip), vehicle: other 100 % of control | dose: 6.25 mg/kg/injection, schedule: Q01DX009 (ip), vehicle: other 110 % of control | dose: 6.25 mg/kg/injection, schedule: Q04DX003 (ip), vehicle: other 95 % of control | dose: 12.5 mg/kg/injection, schedule: Q04DX003 (ip), vehicle: other 100 % of control and 103 % of control | dose: 25.0 mg/kg/injection, schedule: Q04DX003 (ip), vehicle: other 96 % of control

CCn1cc(C(=O)O)c(=O)c2c3ccccc3ccc21
inactive: dose: 100.0 mg/kg/injection, schedule: Q04DX002 (ip), vehicle: Klucel (hydroxypropylcellulose) (HPC) 96 % of control | dose: 200.0 mg/kg/injection, schedule: Q04DX002 (ip), vehicle: Klucel (hydroxypropylcellulose) (HPC) 93 % of control | dose: 400.0 mg/kg/injection, schedule: Q04DX002 (ip), vehicle: Klucel (hydroxypropylcellulose) (HPC) 100 % of control

Cc1c2ccccc2c(CN(C)CC(=O)O)c2ccccc12
inactive: [23] 92 % of control | [7] 90 % of control | [8] 92 % of control

c1cc2c3c(c1)-c1nc4ccccc4cc1CN3CCC2
inactive: [7] 94 % of control | [8] 105 % of control | [9] 96 % of control

CP(c1ccccc1)c1ccccc1
inactive: dose: 50.0 mg/kg/injection, schedule: Q01DX009 (ip), vehicle: Klucel (hydroxypropylcellulose) (HPC) 98 % of control | [1] 95 % of control | [2] 104 % of control | [3] 114 % of control

Cc1cc(C)c2c(=O)[nH][nH]c2n1
inactive: [23] 105 % of control | [7] 100 % of control | [8] 91 % of control

CC(c1ccccc1)N1C(=O)CSC1=S (configuration not stated)
inactive: [23] 96 % of control and 101 % of control | [13] 100 % of control | [7] 99 % of control and 107 % of control | dose: 100.0 mg/kg/injection, schedule: Q04DX002 (ip), vehicle: saline with Tween-80 96 % of control and 98 % of control | [24] 104 % of control | dose: 200.0 mg/kg/injection, schedule: Q01DX001 (ip), vehicle: saline with Tween-80 100 % of control | [8] 96 % of control and 91 % of control | dose: 200.0 mg/kg/injection, schedule: Q04DX002 (ip), vehicle: saline with Tween-80 91 % of control | [25] 102 % of control | dose: 400.0 mg/kg/injection, schedule: Q01DX001 (ip), vehicle: saline with Tween-80 92 % of control | dose: 400.0 mg/kg/injection, schedule: Q04DX002 (ip), vehicle: saline with Tween-80 90 % of control | [26] 90 % of control

CCCCc1ccc(Sc2cccc3c2C(=O)c2c(Sc4ccc(CCCC)cc4)cccc2C3=O)cc1
inactive: [7] 97 % of control | [24] 93 % of control | [8] 102 % of control | [25] 97 % of control | [9] 92 % of control | [26] 97 % of control

C[N+]1=COCC1(C)C
inactive: [15] 104 % of control | dose: 100.0 mg/kg/injection, schedule: Q04DX003 (ip), vehicle: saline 99 % of control | [17] 101 % of control | dose: 200.0 mg/kg/injection, schedule: Q04DX003 (ip), vehicle: saline 94 % of control | [18] 115 % of control | dose: 400.0 mg/kg/injection, schedule: Q04DX003 (ip), vehicle: saline 97 % of control

CC(C)CC(=O)N(C)c1ccccc1
inactive: dose: 50.0 mg/kg/injection, schedule: Q01DX001 (ip), vehicle: carboxymethylcellulose (CMC) 111 % of control | [20] 108 % of control | [21] 100 % of control | [22] 97 % of control

O=C(Nc1ccccc1)c1cc(Cl)ccc1O
inactive: [7] 95 % of control | [24] 86 % of control | [8] 95 % of control | [25] 94 % of control | [9] 95 % of control | [26] 87 % of control

Nc1nnco1
inactive: [10] 97 % of control | [11] 108 % of control | [12] 97 % of control
